Experimental data published in US20070128217A1 (priority 2003, published 2007).

Tests used:
[1] = tested on: antibodies in sera from SARS patients (sera 1a, 1b, 2, 6, 37, 62, London, SARS-yellow, SARS-green); type: binding, human; design: Binding of serum 6 to linear peptides of protein X1 of SARS-CoV Urbani / Binding of serum 37 to linear peptides of protein X1 of SARS-CoV Urbani / Binding of serum 6 to looped/cyclic peptide (PEPSCAN-ELISA) / Binding of serum 37 to looped/cyclic peptide (PEPSCAN-ELISA) / Binding of serum 37 to looped/cyclic peptides of protein X1 of SARS-CoV Urbani / Binding of serum 6 to linear peptides of protein X2 / Binding of serum 37 to linear peptides of protein X2 / Binding of serum 37 to looped/cyclic peptides of protein X2 of SARS-CoV Urbani / Binding of serum 6 to linear peptides of protein M of SARS-CoV Urbani / Binding of serum 37 to linear peptides of protein M of SARS-CoV Urbani / Binding of serum 6 to looped/cyclic peptides of protein M of SARS-CoV Urbani / Binding of serum 37 to looped/cyclic peptides of protein M of SARS-CoV Urbani / Binding of serum 6 to linear peptides of protein X3 of SARS-CoV Urbani / Binding of serum 37 to linear peptides of protein X3 of SARS-CoV Urbani / Binding of serum 37 to looped/cyclic peptides of protein X3 of SARS-CoV Urbani / Binding of serum 6 to linear peptides of protein X4 of SARS-CoV Urbani / Binding of serum 37 to linear peptides of protein X4 of SARS-CoV Urbani / Binding of serum 37 to looped/cyclic peptides of protein X4 of SARS-CoV Urbani / Binding of serum 6 to linear peptides of protein X5 of SARS-CoV Urbani / Binding of serum 37 to linear peptides of protein X5 of SARS-CoV Urbani / Binding of serum 37 to looped/cyclic peptides of protein X5 of SARS-CoV Urbani / Binding of serum 6 to linear peptides of protein N of SARS-CoV Urbani / Binding of serum 37 to linear peptides of protein N of SARS-CoV Urbani / Binding of serum 6 to linear peptide (PEPSCAN-ELISA) / Binding of serum 1a to looped/cyclic peptides of protein N of SARS-CoV Urbani / Binding of serum 1b to looped/cyclic peptides of protein N of SARS-CoV Urbani / Binding of serum 2 to looped/cyclic peptides of protein N of SARS-CoV Urbani / Binding of serum 6 to looped/cyclic peptides of protein N of SARS-CoV Urbani / Binding of serum 37 to looped/cyclic peptides of protein N of SARS-CoV Urbani / Binding of serum 62 to looped/cyclic peptides of protein N of SARS-CoV Urbani / Binding of serum London to looped/cyclic peptides of protein N of SARS-CoV Urbani / Binding of serum SARS-green to looped/cyclic peptides of protein N of SARS-CoV Urbani: unit not given here
[2] = tested on: rabbit serum obtained by immunizing a rabbit with the SARS-CoV strain Frankfurt 1; type: binding; design: Binding of a rabbit serum to linear peptides / Binding of a rabbit serum to looped peptides / Rabbit serum linear peptides / Rabbit serum looped peptides / Binding of a rabbit serum to linear peptides of protein N of SARS-CoV Urbani (Rabbit serum linear peptides) / Binding of a rabbit serum to looped/cyclic peptides of protein N of SARS-CoV Urbani (Rabbit serum looped peptides): unit not given here

HRWHTMVQTCTPNVT
Binding of serum 1a to linear peptides of protein X5 of SARS-CoV Urbani [1]: 0.7
Binding of serum 1a to looped/cyclic peptides of protein X5 of SARS-CoV Urbani [1]: 0.6
Binding of serum 1b to linear peptides of protein X5 of SARS-CoV Urbani [1]: 0.6
Binding of serum 1b to looped/cyclic peptides of protein X5 of SARS-CoV Urbani [1]: 0.5
Binding of serum 2 to linear peptides of protein X5 of SARS-CoV Urbani [1]: 0.8
Binding of serum 2 to looped/cyclic peptides of protein X5 of SARS-CoV Urbani [1]: 0.5
Binding of serum 6 to linear peptides of protein X5 of SARS-CoV Urbani [1]: 0.5
Binding of serum 6 to looped/cyclic peptides of protein X5 of SARS-CoV Urbani [1]: 0.3
Binding of serum 37 to linear peptides of protein X5 of SARS-CoV Urbani [1]: 0.7
Binding of serum 37 to looped/cyclic peptides of protein X5 of SARS-CoV Urbani [1]: 0.3
Binding of serum 62 to linear peptides of protein X5 of SARS-CoV Urbani [1]: 0.8
Binding of serum 62 to looped/cyclic peptides of protein X5 of SARS-CoV Urbani [1]: 0.3
Binding of serum London to linear peptides of protein X5 of SARS-CoV Urbani [1]: 0.7
Binding of serum London to looped/cyclic peptides of protein X5 of SARS-CoV Urbani [1]: 0.1
Binding of serum SARS-green to linear peptides of protein X5 of SARS-CoV Urbani [1]: 0.5
Binding of serum SARS-green to looped/cyclic peptides of protein X5 of SARS-CoV Urbani [1]: 0.3
Binding of serum SARS-yellow to linear peptides of protein X5 of SARS-CoV Urbani [1]: 0.5
Binding of serum SARS-yellow to looped/cyclic peptides of protein X5 of SARS-CoV Urbani [1]: 0.2
Rabbit serum linear peptides [2]: 0.7
Rabbit serum looped peptides [2]: 0.3

IGVAFLAVFQSATKI
Binding of serum 1a to linear peptides of protein X1 of SARS-CoV Urbani [1]: 0.6
Binding of serum 1a to looped/cyclic peptide (PEPSCAN-ELISA) [1]: 0.5
Binding of serum 1b to linear peptides of protein X1 of SARS-CoV Urbani [1]: 0.5
Binding of serum 1b to looped/cyclic peptide (PEPSCAN-ELISA) [1]: 0.4
Binding of serum 2 to linear peptides of protein X1 of SARS-CoV Urbani [1]: 0.6
Binding of serum 2 to looped/cyclic peptide (PEPSCAN-ELISA) [1]: 0.4
Binding of serum 6 to linear peptides of protein X1 of SARS-CoV Urbani [1]: 0.5
Binding of serum 6 to looped/cyclic peptide (PEPSCAN-ELISA) [1]: 0.3
Binding of serum 37 to linear peptides of protein X1 of SARS-CoV Urbani [1]: 0.6
Binding of serum 37 to looped/cyclic peptide (PEPSCAN-ELISA) [1]: 0.5
Binding of serum 62 to linear peptides of protein X1 of SARS-CoV Urbani [1]: 0.6
Binding of serum 62 to looped/cyclic peptide (PEPSCAN-ELISA) [1]: 0.6
Binding of serum London to linear peptides of protein X1 of SARS-CoV Urbani [1]: 0.2
Binding of serum London to looped/cyclic peptide (PEPSCAN-ELISA) [1]: 0.2
Binding of serum SARS-green to linear peptides of protein X1 of SARS-CoV Urbani [1]: 0.2
Binding of serum SARS-green to looped/cyclic peptide (PEPSCAN-ELISA) [1]: 0.2
Binding of serum SARS-yellow to linear peptides of protein X1 of SARS-CoV Urbani [1]: 0.3
Binding of serum SARS-yellow to looped/cyclic peptide (PEPSCAN-ELISA) [1]: 0.3
Binding of a rabbit serum to linear peptides [2]: 0.1
Binding of a rabbit serum to looped peptides [2]: 0.6

IIALNKRWQLALYKG
Binding of serum 1a to linear peptides of protein X1 of SARS-CoV Urbani [1]: 0.7
Binding of serum 1a to looped/cyclic peptide (PEPSCAN-ELISA) [1]: 0.6
Binding of serum 1b to linear peptides of protein X1 of SARS-CoV Urbani [1]: 0.4
Binding of serum 1b to looped/cyclic peptide (PEPSCAN-ELISA) [1]: 0.4
Binding of serum 2 to linear peptides of protein X1 of SARS-CoV Urbani [1]: 0.5
Binding of serum 2 to looped/cyclic peptide (PEPSCAN-ELISA) [1]: 0.5
Binding of serum 6 to linear peptides of protein X1 of SARS-CoV Urbani [1]: 0.7
Binding of serum 6 to looped/cyclic peptide (PEPSCAN-ELISA) [1]: 0.6
Binding of serum 37 to linear peptides of protein X1 of SARS-CoV Urbani [1]: 0.6
Binding of serum 37 to looped/cyclic peptide (PEPSCAN-ELISA) [1]: 0.6
Binding of serum 62 to linear peptides of protein X1 of SARS-CoV Urbani [1]: 0.5
Binding of serum 62 to looped/cyclic peptide (PEPSCAN-ELISA) [1]: 0.6
Binding of serum London to linear peptides of protein X1 of SARS-CoV Urbani [1]: 0.3
Binding of serum London to looped/cyclic peptide (PEPSCAN-ELISA) [1]: 0.4
Binding of serum SARS-green to linear peptides of protein X1 of SARS-CoV Urbani [1]: 0.3
Binding of serum SARS-green to looped/cyclic peptide (PEPSCAN-ELISA) [1]: 0.2
Binding of serum SARS-yellow to linear peptides of protein X1 of SARS-CoV Urbani [1]: 0.5
Binding of serum SARS-yellow to looped/cyclic peptide (PEPSCAN-ELISA) [1]: 0.5
Recognition of the peptide by the rabbit serum [2]: recognized

LACFVLAAVYRINWV
Binding of serum 1a to linear peptides of protein M of SARS-CoV Urbani [1]: 0.7
Binding of serum 1a to looped/cyclic peptides of protein M of SARS-CoV Urbani [1]: 0.7
Binding of serum 1b to linear peptides of protein M of SARS-CoV Urbani [1]: 0.7
Binding of serum 1b to looped/cyclic peptides of protein M of SARS-CoV Urbani [1]: 0.5
Binding of serum 2 to linear peptides of protein M of SARS-CoV Urbani [1]: 0.6
Binding of serum 2 to looped/cyclic peptides of protein M of SARS-CoV Urbani [1]: 0.9
Binding of serum 6 to linear peptides of protein M of SARS-CoV Urbani [1]: 0.4
Binding of serum 6 to looped/cyclic peptides of protein M of SARS-CoV Urbani [1]: 0.7
Binding of serum 37 to linear peptides of protein M of SARS-CoV Urbani [1]: 0.5
Binding of serum 37 to looped/cyclic peptides of protein M of SARS-CoV Urbani [1]: 0.6
Binding of serum 62 to linear peptides of protein M of SARS-CoV Urbani [1]: 0.5
Binding of serum 62 to looped/cyclic peptides of protein M of SARS-CoV Urbani [1]: 0.7
Binding of serum London to linear peptides of protein M of SARS-CoV Urbani [1]: 0.4
Binding of serum London to looped/cyclic peptides of protein M of SARS-CoV Urbani [1]: 0.3
Binding of serum SARS-green to linear peptides of protein M of SARS-CoV Urbani [1]: 0.6
Binding of serum SARS-green to looped/cyclic peptides of protein M of SARS-CoV Urbani [1]: 0.3
Binding of serum SARS-yellow to linear peptides of protein M of SARS-CoV Urbani [1]: 0.3
Binding of serum SARS-yellow to looped/cyclic peptides of protein M of SARS-CoV Urbani [1]: 0.4
Rabbit serum linear peptides [2]: 0.3
Rabbit serum looped peptides [2]: 0.2

LLIQQWIQFMMSRRR
Binding of serum 1a to linear peptides of protein X2 [1]: 0.7
Binding of serum 1a to looped/cyclic peptides of protein X2 of SARS-CoV Urbani [1]: 0.5
Binding of serum 1b to linear peptides of protein X2 [1]: 0.5
Binding of serum 1b to looped/cyclic peptides of protein X2 of SARS-CoV Urbani [1]: 0.5
Binding of serum 2 to linear peptides of protein X2 [1]: 0.5
Binding of serum 2 to looped/cyclic peptides of protein X2 of SARS-CoV Urbani [1]: 0.7
Binding of serum 6 to linear peptides of protein X2 [1]: 0.5
Binding of serum 6 to looped/cyclic peptides of protein X2 of SARS-CoV Urbani [1]: 0.3
Binding of serum 37 to linear peptides of protein X2 [1]: 0.6
Binding of serum 37 to looped/cyclic peptides of protein X2 of SARS-CoV Urbani [1]: 0.5
Binding of serum 62 to linear peptides of protein X2 [1]: 0.6
Binding of serum 62 to looped/cyclic peptides of protein X2 of SARS-CoV Urbani [1]: 0.7
Binding of serum London to linear peptides of protein X2 [1]: 0.4
Binding of serum London to looped/cyclic peptides of protein X2 of SARS-CoV Urbani [1]: 0.2
Binding of serum SARS-green to linear peptides of protein X2 [1]: 0.5
Binding of serum SARS-green to looped/cyclic peptides of protein X2 of SARS-CoV Urbani [1]: 0.3
Binding of serum SARS-yellow to linear peptides of protein X2 [1]: 0.8
Binding of serum SARS-yellow to looped/cyclic peptides of protein X2 of SARS-CoV Urbani [1]: 0.4
Binding of a rabbit serum to linear peptides [2]: 0.5
Binding of a rabbit serum to looped peptides [2]: 0.6
